Measured values reported in patent publication US12186328B2, “Use of CSA compounds to stimulate stem cells and hair growth” (Brigham Young University, priority 2019, dated 2025).

Columns and labels:
[1] = tested on: hair growth on depilated dorsal skin of C57BL/6 mice; assay: Mouse model of hair regrowth after shaving and depilation, topical CSA-44 cream; assay type: in vivo, mice (C57BL/6); conditions: for Percentage Change in Hair growth: Day 21, compared with vehicle treated control group; for Hair growth scoring Day 1 / Hair growth scoring Day 3 / Hair growth scoring Day 7 / Hair growth scoring Day 10 / Hair growth scoring Day 14 / Hair growth scoring Day 17: Mean ± SE, n = 8, score 0-10
Source text: A mouse model was used to test the effectiveness of a CSA-based treatment composition in stimulating stem cells and regenerating hair growth. Male C57BL/6 mice aged 8 weeks, were housed under environmentally monitored conditions and were fed a standard rodent diet. The hair on the dorsal surface of each mouse was shaved with an animal clipper, which was then followed by application of a depilatory cream to clean the remaining hair as described by Jung M K et al (Life Sci. 2015 May 1; 128:39-46). The mice were then allowed to rest for 24 h.
On the day of experiment, all the animals were weighed and randomized into different treatment groups (n=8) according to body weight. Randomized animals were identified by individual animal marking and cage cards were used for group identification.
The animals of Group 1, the control mice, were treated topically with the cream-based vehicle. The animals of Group 2 were treated topically with 100 mg of […] once daily for 3 weeks. The animals in Group 3 were treated topically with 100 mg of 2.0% CSA-44 test compound once every other day for 3 weeks.
A preliminary tolerability study was conducted in C57BL/6 mice for selecting an appropriate well tolerated dose for the present efficacy study. Based on the results from the preliminary dose tolerability study, 100 mg of a formulation containing 0.5% CSA-44 was uniformly applied topically on the shaven areas of the dorsal skin once daily for 3 weeks. Similarly, 100 mg of 2% CSA-44 formulation was applied topically every other day for 3 weeks. 100 mg of cream vehicle was applied topically on the shaved areas once daily for 3 weeks.
The hair-growth score was evaluated using the scoring pattern below as described by Vegesna et al (Endocrinology 143(11):4389-4396). A score of ‘0’ indicates no change in the amount of hair growth compared with the hair-loss induction day and a score of ‘10’ indicates full hair growth on the entire site on the dorsal skin. Darkening and hair-growth rate was monitored twice weekly for 3 weeks. Images of the dorsal skin of the mice were captured using a digital camera at weekly intervals to notice the start of hair regrowth period and the hair regrowth pattern.
Body weight of the animals were recorded once prior to randomization (pre dose) and twice weekly during the course of the study. All animals were observed once daily for clinical signs and twice daily (morning and evening) for mortality and morbidity. No mortality was observed during the study period. Animals were sacrificed at the end of the study period by following a standard protocol using CO2 induced euthanasia. Results
Hair growth score and body weight were recorded twice weekly during the study period. The percentage (%) change in hair growth was calculated on Day 21 by comparing the treated mice with the vehicle treated control group.

[2] = tested on: hair loss associated with a dermal fungal infection; assay: Horse with "summer itch" hair loss treated with a composition including CSA-44; assay type: in vivo
Source text: A treatment composition including CSA-44 was applied to a horse having a “summer itch” condition associated with a dermal fungal infection. […] As shown, the subject horse had several patches of visible hair loss. […] As shown, hair had regrown to completely fill in the previous patches and the regrown hair was thick and full. Typical time for hair to grow back on a horse following treatment of such a fungal infection is approximately 28 days. The CSA-based treatment therefore regenerated hair growth 1.56 times faster than a conventional treatment.

[3] = 0.5% CSA-44, topical, once daily for 3 weeks
[4] = 2% CSA-44, topical, once every other day for 3 weeks

CCCCCCCCOC(=O)CC[C@@H](C)[C@H]1CC[C@H]2[C@@H]3[C@H](OC(=O)CCN)C[C@@H]4C[C@H](OC(=O)CCN)CC[C@]4(C)[C@H]3C[C@H](OC(=O)CCN)[C@]12C [CSA-44]
Percentage Change in Hair growth [1, 3]: 72% | Hair growth scoring Day 1 [1, 3]: 0.00 | Hair growth scoring Day 3 [1, 3]: 0.25 | Hair growth scoring Day 7 [1, 3]: 0.50 | Hair growth scoring Day 10 [1, 3]: 1.38 | Hair growth scoring Day 14 [1, 3]: 2.63 | Hair growth scoring Day 17 [1, 3]: 4.88 | Percentage Change in Hair growth [1, 4]: 66% | Hair growth scoring Day 1 [1, 4]: 0.00 | Hair growth scoring Day 3 [1, 4]: 0.38 | Hair growth scoring Day 7 [1, 4]: 0.50 | Hair growth scoring Day 10 [1, 4]: 1.50 | Hair growth scoring Day 14 [1, 4]: 2.50 | Hair growth scoring Day 17 [1, 4]: 4.13 | Skin area with black hair compared with control group ([1]; CSA-44 treated groups, end of 3 weeks): larger | Hair growth regeneration speed versus conventional treatment ([2]; 18 days versus typical approximately 28 days): 1.56 times faster | Treatment time after which hair had regrown to completely fill in the previous patches ([2]; horse, composition including CSA-44): 18 days
